Experiment [1] has as its system TCR27 transfectants of J76-NFATRE-luc cells. Description: T cell activation assay using a luciferase reporter, TCR27 transfectants with K562-DQ6 APCs. The experiment is classed as cell-based, human. The following applies: DQ6-restricted presentation by K562-DQ6, 1 day. Also noted: dose or concentration left out as unconfirmed. An excerpt:
To encode the entire α/β chains of a candidate TCR, the nucleotide sequences for CDR3a and CDR3P were incorporated in frame with the corresponding V(D)J genes (IMGT/V-QUEST^37). TCRα/β genes were then synthesized and cloned into a plasmid pEF1α-TCRA_2A_TCRB_IRES-AcGFP1 (by GenScript). Each reconstructed plasmid uses a mammalian promoter, EF1a to direct co-expression of α and β chains of one candidate TCR. TCRA and TCRB are separated by the 2A self-cleaving peptide sequence. For selection purposes, the plasmid also encodes the green fluorescence protein (GFP) and neomycin resistance gene, with expression driven by separate promoters. TCR-encoding plasmids were then transfected into the TCRα/β deficient Jurkat cell line (J76-NFATRE-luc)^20 by nucleofection following the Amaxa Optimized protocol (Lonza). Transfectants were selected by G418 at a concentration of 1 mg/ml and recovered after 3-4 weeks of culturing in the RPMI medium supplemented with 10% HI FBS, 2 mM glutamine, and 1% PS. To avoid the heterogeneity in TCR expression observed in a polyclonal cell line, TCRαβ^+/GFP^+/CD3^+ cell transfectants were individually sorted by single cell FACS, to expand clonal cell lines originating from single cell transfectants. These clonal lines were then co-stained with PE anti-TCRα/β Abs (BD Biosciences) and APC DQ6-HCRT tetramers to confirm the expression of TCRs and validate their binding to tetramers using flow cytometric analysis.
The TCR transfectants of J76-NFATRE-luc cells expresses the NFAT-RE (response element)-luciferase reporter gene allowing the conversion of T cell activation signaling to luciferase activity^20. […] The co-culture was incubated with various stimuli at 37° C. for 1 day before quantification of the luciferase activity. […] The mixture was then transferred to a flat-bottom white 96-well plate (Costar) for a measurement of chemiluminescence using a plate reader.
A general note: Reporter assays use an easily measured gene product as a stand-in for the process of interest.

Experiment [2] relates to CD4+ T cells from T1N donors. Nature of the experiment: In vitro culturing of CD4+ T cells with peptide-loaded T2DQ6 APCs, then tetramer staining. It is filed as cell-based, human. The conditions noted are these: for Frequencies of tetramer+ cells after in vitro stimulation with the corresponding peptide: stained with the tetramer of the corresponding peptide. An excerpt:
To test for the presence of DQ6-HCRTpeptide tetramer^+/CD4^+ T cells, a peptide-loaded antigen presenting cell (APC) line T2DQ6 (fixed to limit APC proliferation) was co-cultured with T cells for DQ6-restricted antigen stimulation. T2DQ6 was constructed by stable transfection of DQ6 (DQA1*01:02/DQB1*06:02) into T2, a class II deficient TxB hybrid cell^44. T2DQ6 cells were maintained in IMDM, GlutaMAX supplemented media (Thermo Fisher Scientific) with 10% HI FBS, 1% penicillin/streptomycin (P/S) and 1 mg/ml G418 (to maintain selective pressure on DQ6 transfectants). To load antigen, T2DQ6 cells were pulsed with peptides (i.e., EBV486-500, HCRT56-69, HCRT87-100, synthesized by Genscript) at 1 μM final concentration and incubated for 6 hours at 37° C. After peptide loading, 10 million T2DQ6 cells were washed with phosphate buffered saline (PBS) and then fixed by incubating with 0.025% glutaraldehyde in 2 ml PBS at RT for 30 seconds. After the addition of another 2 ml PBS, the cells were incubated for another 10 minutes at RT. Fixed T2DQ6 was washed twice with PBS and once with complete RPMI (RPMI 1640 medium supplemented with 10% HI human AB serum, 2 mM glutamine and 1% PS) before mixing with CD4^+ T cells. Human PBMCs frozen in NUNC tubes were thawed quickly at 37° C. and added slowly to 10 ml warm complete RPMI. PBMCs were pelleted and resuspended in cold buffer for CD4^+ T cell isolation. Cells were isolated from the PBMCs by negative selection, using the CD4^+ cell isolation kit, according to the manufacturer's instructions (Miltenyi Biotec). Isolated CD4^+ T cells were resuspended at 1×10^6 cells/ml in warm complete RPMI and rested for at least 1 hour before mixing with fixed T2DQ6 cells that were also resuspended at 1×10^6 cells/ml in warm complete RPMI. A mixture of 1:1 volume ratio of CD4^+ T cells and T2DQ6 cells in the presence of recombinant human IL-7 at final concentration of 2.5 ng/ml was aliquoted onto a 96-well plate and incubated at 37° C. for 6 days. On day 6 and day 9, 100 μl of the spent medium was removed from each well and replaced with fresh complete RPMI containing recombinant IL-7 at 2.5 ng/ml and IL-2 at 40 U/ml final concentrations. On day 12, a second round of antigen stimulation was performed similarly, using fixed T2DQ6 cells loaded with the corresponding peptides.
Sufficient cells from the co-culture were collected, washed with complete RPMI, and resuspended in 5 ml complete RPMI at RT prior to Ficoll gradient separation. Cells above the Ficoll media were washed and resuspended at 10×10^6 cells/ml in complete RPMI for blocking. […]

Experiment [3] deals with T1, soluble DQ6 (DQA1*01:02/DQB1*06:02) (Homo sapiens, UniProt P01909+P01920, A157G/A45G/C70R/E118A/E183D/E77G/F83G/G63E/H151Q/H199R/H252R/H253Q/I129T/I235V/I88M/INS77G/K197Q/L117V/L119F/L178F/L71W/L74F/L85Q/L91A/L98M/N214S/P87R/Q116E/Q76K/R102G/R240Q/R75S/R78G/S102Y/S185I/S41F/S97I/T121G/T122I/T172A/T86R/V229M/V68A/V73E/Y34C/Y41F/Y58L).
T1 construct: 3C protease cleavage site (C); leucine zipper-Fos (C); cut by thrombin before the assay (N, cleaved yes); leucine zipper-Jun (C); made in house; host or cells: Drosophila Schneider 2 (S2) insect cells
Nature of the experiment: Peptide competition assay (inhibition of DQ6 binding of biotinylated EBV486-500). An excerpt:
The ability of a peptide to inhibit the interaction of DQ6 and a reference binding peptide at steady state was used to estimate the relative DQ6 binding capacity of test peptides. We used biotinylated EBV486-500 (aa: biotin-[…] (SEQ ID NO:45), synthesized by Genscript), a DQ6-binding peptide (epitope underlined) derived from Epstein-Barr virus nuclear antigen^25, as our reference peptide. Non-biotinylated test peptides included thirty 15-mer overlapping peptides derived from prepo-HCRT (Table 1, by Genscript) and the positive control peptide EBV486-500. The DQ6-CLIP87-101 construct contains a thrombin cleavage site in between CLIP87-101 and […]. To cleave the covalent linker and enable replacement of CLIP87-101 by high affinity DQ6 binders, soluble DQ6-CLIP87-101 at a concentration of 3 μM was incubated with 0.002 U/μl thrombin enzyme (Novagen, EMD Millipore) for 2 h at room temperature (RT) prior to peptide loading experiments. To test DQ6 binding capacity, a non-biotinylated peptide at 40 μM was mixed with 1 μM biotinylated EBV486-500 and incubated with 25 nM thrombin-cleaved DQ6-CLIP87-101. 100 nM soluble DM was added as a catalyst to increase the peptide exchange efficiency^44. […] Time resolved fluorescence representing DQ6-associated biotinylated EBV486-500 captured by SPV-L3 in each well was then quantified using the DELFIA Eu-N1 Streptavidin System (PerkinElmer).

The target in experiment [4] is T2, prepro-HCRT (hypocretin precursor) peptide on HLA-DQA1*01:02 / HLA-DQB1*06:02 (human).
T2 peptide: ALLSSGAAAQPLP
Description: activation reporter or marker.

The target in experiment [5] is soluble HLA-DQ6 (DQA1*01:02/DQB1*06:02), thrombin-cleaved DQ6-CLIP87-101 (human). Nature of the experiment: competition: 40 µM test peptide against 1 µM biotinylated EBV486-500 on 25 nM soluble DQ6 with 100 nM HLA-DM, SPV-L3 capture, DELFIA.
Experiment [6] addresses T3, prepro-HCRT (hypocretin precursor) peptide on HLA-DQA1*01:02 / HLA-DQB1*06:02 (human).
T3 peptide: MNLPSTKVSWAAV
Description: multimer staining.

The target in experiment [7] is T4, prepro-HCRT (hypocretin precursor; C-terminus of HCRT2) peptide on HLA-DQA1*01:02 / HLA-DQB1*06:02 (human).
T4 peptide: SGNHAAGILTMGRR
Nature of the experiment: multimer staining.

Entries after “also recorded” stand apart in the source; their conditions may differ. Ends that are not written are not given here. * marks the point of attachment. Biotin = O=C1N[C@H]2[C@H](CS[C@H]2CCCCC(=O)*)N1

SGNHAAGILTMGRR [HCRT87-100]: in experiment [1], the “TCR-mediated signaling (luciferase activity)” value is listed as “able to trigger TCR-mediated activation signaling”. In addition, in experiment [2] (stained with the DQ6-HCRT56-69 tetramer, some T1N donors), the “Enrichment of DQ6-HCRT56-69 tetramer+ cells in peptide-stimulated culture” value is recorded as “enrichment”. The “Frequencies of tetramer+ cells after in vitro stimulation with the corresponding peptide” value (shortened to “Frequencies of tetramer+ cells”) in experiment [2] was “significantly increased”.

Regarding ALLSSGAAAQPLPDC [HCRT25-39], the DQ6 binder class entry in experiment [3] (competition assay, FIG. 2A) is recorded as “strong binder”. As for “EBV486-500: a DQ6-binding peptide derived from Epstein-Barr virus nuclear antigen, reference and positive control peptide (Biotin-GGGRALLARSHVERTTDE) [reference compound]”, the “Frequencies of tetramer+ cells” value in experiment [2] is “time dependent enrichment”. For MNLPSTKVSWAAVTL [HCRT1-15], in experiment [3] (test peptide 40 μM, 1 μM biotinylated EBV486-500, 25 nM DQ6, 100 nM DM, pH 4.6, 37° C., 20 hours), the “% Competition (inhibition of the indicator EBV peptide binding to DQ6)” value was greater than 75%.

In the case of AGNHAAGILTLGKR [HCRT56-69], the “Frequencies of tetramer+ cells” value in experiment [2] is recorded as “significantly increased”.

In the case of MNLPSTKVSWAAV [HCRT1-13], the “TCR-mediated signaling (luciferase activity)” value in experiment [1] is listed as “failure of TCR27-mediated signaling”. The same measure, in the same setting: next, SGNHAAGILTM-NH2 [HCRT87-97-NH2]: “significant signaling response; also recorded: triggered stronger signaling”.

B1: TCR26 (TCR)
alpha TRAV9-2 TRAJ5 CDR3: CALSGKDTGRRALTF
beta TRBV25-1 TRBJ2-1 CDR3: CASSASPNEQFF
As for B1, the binding result in experiment [4] is “no recognition”.

On to MNLPSTKVSWAAVTL [Hcrt1-15 peptide (…)], for which, in experiment [5], the % competition is greater than 75%.

B2: T1N-irrelevant TCR isolated from a CD8+ T cell (TCR)
alpha TRAV25 TRAJ42 CDR3: CAGTYGGSQGNLIF
beta TRBV19 TRBJ2-2 CDR3: CASSLRSTGELFF
Regarding B2, the binding result in experiment [4], in experiment [6] and in experiment [7] was “no recognition” in each case.
